Measured values: US20250223306A1, “TEAD INHIBITORS AND METHODS OF USE” (Sporos BioDiscovery, Inc., priority 2022, published 2025)

System: MSTO-211H xenograft
Assay: Inhibition of mouse xenograft MSTO-211H tumors
Format: in vivo, BALB/c nude mice
Conditions: 12.5 mg/kg, PO, BID; for Tumor Volume (mean): day 27 (Table 16); for Relative T/C (treated/control relative tumor volume ratio) / TGI: day 27; for Relative T/C (treated/control relative tumor volume ratio): T/C(%) = TRTV / CRTV × 100; for TGI: TGI = [1 − (Ti − T0)/ (Vi − V0)] × 100
Excerpt: This study evaluated the in vivo anti-tumor efficacy of test compounds in BALB/c nude mice for treatment of MSTO-211H xenograft of lung cancer.
• Species: Mus Musculus • Strain: BALB/c nude • Age: 6-8 weeks • Sex: female • Body weight: 18-22 g • Number of animals inoculated with tumor: 80 mice • Number of animals enrolled in the treatment: 36 mice • Number of unenrolled animals: 44 mice • Animal supplier: Beijing Vital River Biotechnology Experimental Animal Co. Ltd Certification number: 20170011010591
The MSTO-211H tumor cells were maintained in RPMI 1640 medium supplemented with 10% Fetal bovine serum and 1% Antibiotic-Antimycotic at 37° C. in an atmosphere of 5% CO2 in air. The tumor cells were routinely subcultured twice weekly by trypsin-EDTA. The cells growing in an exponential growth phase with 95% cell survival or above were harvested, and counted for tumor inoculation.
Each mouse was inoculated subcutaneously at the right flank with MSTO-211H tumor cells (5×10^6+50% matrigel/0.2 mL) for tumor development. Animals were marked with earrings with unique 6 significant figure number for identification. The treatments were started when the average tumor volume reached an average size of 181 mm^3.
The major endpoint was to see if the tumor growth could be delayed or mice could be cured. Tumor volume was measured twice a week in two dimensions using a caliper, and the volume was expressed in mm^3 using the formula: V=0.5 a×b^2 where a and b are the long and short diameters of the tumor, respectively. The tumor size was then used for calculations of T/C value. The TGI value (in percent) or the T/C value (in percent) is an indication of antitumor effectiveness; T and C are the mean tumor volumes or tumor weights of the treated and control groups, respectively, on a given day.
TGI was calculated for each group using the formula: TGI (%)=[1−(Ti−T0)/(Vi−V0)]×100; Ti is the average tumor volume of a treatment group on a given day, To is the average tumor volume of the treatment group on the day of treatment start, Vi is the average tumor volume of the vehicle control group on the same day with Ti, and V0 is the average tumor volume of the vehicle group on the day of treatment start.
Relative T/C (%)=TRTV/CRTV×100 (RTV(%)=Vt/V0×100, Vt is the average tumor volume on a given day, V0 is the average tumor volume on the first day of treatment. TRTV is the RTV of a treatment group, and the CRTV is the RTV of the vehicle control group.)
Summary statistics, including mean and the standard error of the mean (SEM), were provided for the tumor volume of each group at each time point.
Statistical analysis of difference in tumor volume among the groups was conducted on the data obtained at the end of the study.
One-tailed T test was performed to compare tumor volumes between two groups. All data are analyzed using GraphPad Prism 6.0. p<0.05 is considered to be statistically significant.
The antitumor effectiveness of the study was analyzed on PG-D27 when vehicle group reached 588 mm^3.

[1] = day 0 after the start of treatment
[2] = day 3 after the start of treatment
[3] = day 6 after the start of treatment
[4] = day 10 after the start of treatment
[5] = day 13 after the start of treatment
[6] = day 17 after the start of treatment
[7] = day 20 after the start of treatment
[8] = day 23 after the start of treatment
[9] = day 27 after the start of treatment

Structure (SMILES)	Tumor size (mean) [1] [mm^3]	Tumor size (mean) [2] [mm^3]	Tumor size (mean) [3] [mm^3]	Tumor size (mean) [4] [mm^3]	Tumor size (mean) [5] [mm^3]	Tumor size (mean) [6] [mm^3]	Tumor size (mean) [7] [mm^3]	Tumor size (mean) [8] [mm^3]	Tumor Volume (mean) [mm^3]	Relative T/C (treated/control relative tumor volume ratio) [%]	TGI [%]	Tumor size (mean) [9] [mm^3]
C[C@@H](NC(=O)c1cnc2c(C3=CCC4(CC3)CC4)cccc2c1)c1ncco1 [Compound 166, (R)—N-(1-(oxazol-2-yl)ethyl)-8-(spiro[2.5]oct-5-en-6-yl)quinoline-3-carboxamide]	181	192	177	153	145	139	148	184	219	38.1	90.7	219
COc1cc(C2=CCC(C(F)(F)F)CC2)c2ncc(C(=O)N[C@H](C)CO)cc2c1 (stereo partly drawn) [Compound 110, N—((R)-1-hydroxypropan-2-yl)-6-methoxy-8-(4-(trifluoromethyl)cyclohex-1-en-1-yl)quinoline-3-carboxamide]	181	207	179	107	75	51	42	53	50	8.5	132.4	50
C[C@H](CO)NC(=O)c1cnc2c(C3=CCC(C(F)(F)F)CC3)cccc2c1 (stereo partly drawn) [Compound 7, N—((R)-1-hydroxypropan-2-yl)-8-(4-(trifluoromethyl)cyclohex-1-en-1-yl)quinoline-3-carboxamide]	181	245	219	124	99	86	109	117	126	21.4	113.6	126
COC[C@H](CO)NC(=O)c1cnc2c(C3=CCC(C(F)(F)F)CC3)cccc2c1 (stereo partly drawn) [Compound 62, N—((S)-1-hydroxy-3-methoxypropan-2-yl)-8-(4-(trifluoromethyl)cyclohex-1-en-1-yl)quinoline-3-carboxamide]	181	224	228	149	111	82	88	101	104	17.9	119.1	104
COc1cc(C2=CCC(C(F)(F)F)CC2)c2ncc(C(=O)N[C@H](C)c3ncco3)cc2c1 (stereo partly drawn) [Compound 109, 6-methoxy-N—((R)-1-(oxazol-2-yl)ethyl)-8-(4-(trifluoromethyl)cyclohex-1-en-1-yl)quinoline-3-carboxamide]	181	216	174	89	59	44	44	46	58	10.1	130.2	58
